Measurements: PubChem BioAssay AID1919004 (Molecular Pharmacology Branch, DTP, NCI, 2023)
“And” between values parts separate entries of the source, which are not always exact repeats. Identical values can stand only once. Values belong to the molecule of their own block, whether it stands above or below them.

Tested on: 883617-216-R-J1-PDC complex spheroids, growth, % test/control
Test: Anticancer human tumor 883617-216-R-J1-PDC patient-derived bladder carcinoma cell line growth inhibition [AhR]
Conditions: for viability, T/C: stronger effect = lower value
Summary of the method: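 Agents were dosed in half-log steps down from roughly clinical Cmax, or from 10 microM where Cmax was unknown, alone and with AhR antagonists. Read-out: percent test/control growth of tumor spheroids containing HUVEC and MSC stromal cells.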

[1] = curve of first compound, second compound 0.1 µM
[2] = curve of first compound, second compound 0.316 µM
[3] = curve of first compound, second compound 1 µM
[4] = curve of first compound, second compound 3.16 µM
[5] = curve of first compound, second compound 10 µM
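Also: exposure lasted 7 days after dosing on day 3 of spheroid growth.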

IC50 [1]: 900 nM
IC50 [2]: 1380 nM
IC50 [3]: 1760 nM
IC50 [4]: 1530 nM
IC50 [5]: < 9.49 nM
Compound: O=C(C=Cn1cnc(-c2cc(C(F)(F)F)cc(C(F)(F)F)c2)n1)NNc1cnccn1 + Cc1cncc(-c2nc(NCCc3c[nH]c4ccccc34)c3ncn(C(C)C)c3n2)c1
viability, T/C (second compound 0.1 µM, first compound 0.00949 µM): 81.5%
viability, T/C (second compound 0.1 µM, first compound 0.03 µM): 74.9%
viability, T/C (second compound 0.1 µM, first compound 0.0949 µM): 63.7%
viability, T/C (second compound 0.1 µM, first compound 0.3 µM): 58.1%
viability, T/C (second compound 0.1 µM, first compound 0.949 µM): 50.1%
viability, T/C (second compound 0.1 µM, first compound 3 µM): 42.5%
viability, T/C (second compound 0.316 µM, first compound 0.00949 µM): 88.3%
viability, T/C (second compound 0.316 µM, first compound 0.03 µM): 78.4%
viability, T/C (second compound 0.316 µM, first compound 0.0949 µM): 72.3%
viability, T/C (second compound 0.316 µM, first compound 0.3 µM): 58.1%
viability, T/C (second compound 0.316 µM, first compound 0.949 µM): 57.1%
viability, T/C (second compound 0.316 µM, first compound 3 µM): 42.4%
viability, T/C (second compound 1 µM, first compound 0.00949 µM): 83%
viability, T/C (second compound 1 µM, first compound 0.03 µM): 79.1%
viability, T/C (second compound 1 µM, first compound 0.0949 µM): 69.5%
viability, T/C (second compound 1 µM, first compound 0.3 µM): 61.4%
viability, T/C (second compound 1 µM, first compound 0.949 µM): 62%
viability, T/C (second compound 1 µM, first compound 3 µM): 42.7%
viability, T/C (second compound 3.16 µM, first compound 0.00949 µM): 93.6%
viability, T/C (second compound 3.16 µM, first compound 0.03 µM): 88.2%
viability, T/C (second compound 3.16 µM, first compound 0.0949 µM): 80%
viability, T/C (second compound 3.16 µM, first compound 0.3 µM): 67.5%
viability, T/C (second compound 3.16 µM, first compound 0.949 µM): 52.9%
viability, T/C (second compound 3.16 µM, first compound 3 µM): 45.2%
viability, T/C (second compound 10 µM, first compound 0.00949 µM): 49.5%
viability, T/C (second compound 10 µM, first compound 0.03 µM): 40.5%
viability, T/C (second compound 10 µM, first compound 0.0949 µM): 32.4%
viability, T/C (second compound 10 µM, first compound 0.3 µM): 29.7%
viability, T/C (second compound 10 µM, first compound 0.949 µM): 42.5%
viability, T/C (second compound 10 µM, first compound 3 µM): 44.2%

IC50 [1]: > 1000 nM
IC50 [2]: > 1000 nM
IC50 [3]: > 1000 nM
IC50 [4]: > 1000 nM
IC50 [5]: < 3.16 nM
Compound: Nc1ncn(C2CC(O)C(CO)O2)c(=O)n1 (configuration not stated) + Cc1cncc(-c2nc(NCCc3c[nH]c4ccccc34)c3ncn(C(C)C)c3n2)c1
viability, T/C (second compound 0.1 µM, first compound 0.00316 µM): 81.2%
viability, T/C (second compound 0.1 µM, first compound 0.01 µM): 76.9%
viability, T/C (second compound 0.1 µM, first compound 0.0316 µM): 76.2%
viability, T/C (second compound 0.1 µM, first compound 0.1 µM): 73.1%
viability, T/C (second compound 0.1 µM, first compound 0.316 µM): 77.9%
viability, T/C (second compound 0.1 µM, first compound 1 µM): 67.7%
viability, T/C (second compound 0.316 µM, first compound 0.00316 µM): 92.2%
viability, T/C (second compound 0.316 µM, first compound 0.01 µM): 89.5%
viability, T/C (second compound 0.316 µM, first compound 0.0316 µM): 84.5%
viability, T/C (second compound 0.316 µM, first compound 0.1 µM): 74.1%
viability, T/C (second compound 0.316 µM, first compound 0.316 µM): 71.3%
viability, T/C (second compound 0.316 µM, first compound 1 µM): 79.6%
viability, T/C (second compound 1 µM, first compound 0.00316 µM): 92.1%
viability, T/C (second compound 1 µM, first compound 0.01 µM): 89.8%
viability, T/C (second compound 1 µM, first compound 0.0316 µM): 84.8%
viability, T/C (second compound 1 µM, first compound 0.1 µM): 77.2%
viability, T/C (second compound 1 µM, first compound 0.316 µM): 86.1%
viability, T/C (second compound 1 µM, first compound 1 µM): 78.7%
viability, T/C (second compound 3.16 µM, first compound 0.00316 µM): 97.2%
viability, T/C (second compound 3.16 µM, first compound 0.01 µM): 87.5%
viability, T/C (second compound 3.16 µM, first compound 0.0316 µM): 104%
viability, T/C (second compound 3.16 µM, first compound 0.1 µM): 99.8%
viability, T/C (second compound 3.16 µM, first compound 0.316 µM): 103%
viability, T/C (second compound 3.16 µM, first compound 1 µM): 84.2%
viability, T/C (second compound 10 µM, first compound 0.00316 µM): 43.5%
viability, T/C (second compound 10 µM, first compound 0.01 µM): 42.6%
viability, T/C (second compound 10 µM, first compound 0.0316 µM): 45.2%
viability, T/C (second compound 10 µM, first compound 0.1 µM): 47.7%
viability, T/C (second compound 10 µM, first compound 0.316 µM): 51.2%
viability, T/C (second compound 10 µM, first compound 1 µM): 55%

IC50 (curve of compound): 234 nM and 137 nM and > 300 nM
Compound: CCc1c2c(nc3ccc(O)cc13)-c1cc3c(c(=O)n1C2)COC(=O)[C@]3(O)CC
viability, T/C (compound 0.000949 µM): 88.9% and 98.2% and 69%
viability, T/C (compound 0.003 µM): 82.4% and 85.1% and 111%
viability, T/C (compound 0.00949 µM): 72.4% and 70.3% and 75.6%
viability, T/C (compound 0.03 µM): 79.9% and 64.4% and 83.5%
viability, T/C (compound 0.0949 µM): 68.2% and 57.1% and 75.1%
viability, T/C (compound 0.3 µM): 44.6% and 41% and 84.5%
